Reference: patent US20230321101A1, “METHODS AND USES OF HALOFUGINONE” (The Regents of the University of California, priority 2020, published 2023)
Entries after “also recorded” stand apart in the source; their conditions may differ.

Key:
[1] = tested on: cell surface heparan sulfate of Vero E6 cells; assay: Heparan sulfate presentation by anti-HS mAb 10E4 staining of Vero E6 cells; type: cell-based, African green monkey; details: Vero E6, 18 h
[2] = tested on: authentic SARS-CoV-2; type: cell-based
[3] = tested on: SARS-CoV-2 spike protein pseudotyped VSV; type: cell-based
[4] = tested on: Vero E6 cells; assay: Cell number of Vero E6 cells treated for 24 h; type: cell-based, African green monkey; details: Vero E6, 24 h
Experimental: FIG. 32A and FIG. 32B. […] A-B, Measurement of authentic SARS-CoV-2 infection and cell number in Vero E6 cells treated with (A) halofuginone (HF) or (B) the 2R,3S-(+) enantiomer for 24 h. Data shown as mean±S.D.

[5] = tested on: DENV-2 (Dengue); assay: DENV-2 antiviral immunofluorescence assay in Huh7 cells; type: cell-based; details: Dengue virus, DENV2, Huh-7, read-out: EC50 DENV-2
Experimental: (§1) Experimental Procedure. The antiviral activity of 8 dilutions of each compound was explored by adding the drug to the assay cells 2 h after infection with the different viruses. Virus and compounds were left on the cells for the entire duration of the experiment (28 h for Zika virus and 24 h for all other viruses). The cytotoxicity of the same range of concentrations of compounds was determined by LDH release assay in the same cell lines.
(§2) Cell plating. Cells were detached and counted following SOP-RA 003 and SOP-RA 004. Count was recorded in the Cell Count Logbook, Volume 1. For each virus four plates were seeded, two for the antiviral assay and two for the cytotoxicity assay. Cells were seeded in 100 μl/well of complete media at the following densities: • Huh7: 8,000 cells/well (Dengue) • SH-SY5Y: 10,000 cells/wells (Zika) • HeLa Tzmbl: 8,000 cells/well (HIV)
(§3) Compounds dilutions. The 22.1 mM stocks were further diluted to 1 mM in DMSO by adding 211 μl of DMSO to 10 μl of compound. Three serial dilutions were prepared in different media for different viruses/cells. For each dilution, drugs were prepared at twice the final concentration in 50 μl volume, because they are diluted to the final concentration by an equal volume of virus or media.
(§4) Infection. Cells were infected in 50 μl of supplemented media/well at the following multiplicity of infection (MOI): • DENV-2, MOI 1 • ZIKV, MOI 5 • HIV, MOI 0.5
(§5) After removing culture media from cells, 50 μl of virus dilution were added to all wells except Column 11 (uninfected control), where the same volume of supplemented media was added. […]
(§6) Infectivity readout. […] The primary antibodies were detected with an Alexa-488 conjugate secondary antibody (Life Technologies, A11001), and nuclei were stained with Hoechst. Images were acquired on a CellInsight CX5 high content platform (Thermo Scientific) using a 4× objective, and percentage infection calculated using CellInsight CX5 software (infected cells/total cells×100).
(§7) Determination of % Inhibition—IF assay. Normalized percentages of inhibition were calculated using the following formula: […]

[6] = tested on: heparan sulfate of Hep3B cells; assay: HS content and disaccharide analysis by LC-MS in Hep3B cells; type: cell-based, human
[7] = tested on: Huh 7.5 cells; assay: Cell viability of Huh 7.5 cells, alamarBlue; type: cell-based, human; details: Huh 7.5, 24 hr
Experimental: FIG. 28. Cell viability in Huh 7.5 cells after treatment for 24 hours with Halofuginone. Cell viability was measured using alamarBlue staining in HuH 7.5 cells at indicated concentrations of halofuginone after a 24 hr treatment (n=3 per dose). Data shown as mean±S.D. Statistics performed by 1-way ANOVA (ns: p>0.05, *:p≤0.01).
Cell Culture. Huh-7.5 cells^1 were generously provided by Charles M. Rice (Rockefeller University, New York, NY). Hep3B, BHK-15 and Calu-3 cells were from ATCC and were grown in DMEM medium containing 10% % fetal bovine serum, and 100 IU/ml of penicillin, 100 μg/ml of streptomycin sulfate and nonessential amino acids. BHK-15 were grown in Modified Eagle's supplemented with 10% fetal bovine serum and nonessential amino acids (Gibco, #11140-050). Hep3B, A375 and Vero E6 cells were from ATCC. The Hep3B cells carrying mutations in HS biosynthetic enzymes was derived from the parent ATCC Hep3B stock, and have been described previously^2. All cells were supplemented with 10% FBS, 100 IU/ml of penicillin and 100 μg/ml of streptomycin sulfate and grown under an atmosphere of 5% CO2 and 95% air. Cells were passaged before 80% confluence was reached and seeded as explained for the individual assays. Cell viability was measured using LDH leakage (Promega) or alamarBleu (Thermo Fisher).

[8] = tested on: HIV-1; assay: HIV-1 antiviral immunofluorescence assay in HeLa Tzmbl cells; type: cell-based; details: Human immunodeficiency virus 1, read-out: EC50 HIV-1
Experimental: as §1, §2, §3, §4, §5, §6, §7

[9] = tested on: Hep3B cells transcriptome; assay: RNA-Seq of Hep3B cells treated with halofuginone; type: cell-based, human
[10] = tested on: authentic SARS-COV-2 virus; assay: SARS-CoV-2 infected golden hamsters, intraperitoneal halofuginone; type: in vivo; details: for viral titer (TCID50 from nasal washes): 200 μg/kg intraperitoneally daily
Experimental: FIG. 35A, FIG. 35B, and FIG. 35C.
Six golden hamsters were dosed at 200 μg/kg with halofuginone starting at day −1, infected at day 0 with authentic SARS-COV-2 virus, and every day for five more days they received 200 μg/kg of halofuginone (FIG. 35A). Dosing was done intraperitoneally. A control group (n=6) was administered PBS. On day 3, half of the animals (n=3) in each group was sacrificed, and at day 5 the remaining animals (n=3) were sacrificed. TCID50 values as a measure of SARS-CoV-2 infectivity were measured from nasal washes at day 3 and day 5; the values were determined by viral cytopathic effect.

## O=C(CC1NCCCC1O)Cn1cnc2cc(Br)c(Cl)cc2c1=O (racemic) [halofuginone]
[1]
  effect on heparan sulfate presentation (10E4 binding): 10E4 binding increased and did not significantly alter heparan sulfate production and presentation
[1]; listed as Halofuginone
  effect on heparan sulfate presentation (10E4 binding): did not decrease cellular HS
[2]
  infectious SARS-CoV-2 in supernatants (plaque assay): No infectious SARS-CoV-2 could be detected; also recorded: No virus was detected
[3]
  inhibition of pseudotyped VSV infection: about 30 fold
[4]
  cell proliferation (cell number): inhibit SARS-CoV-2 infection and cell proliferation
[5]
  EC50: 0.0354 µM
[6]
  disaccharide composition of HS: No difference was seen in the disaccharide composition
[6]; 0.5 μM
  reduction of cell surface HS: ~4 fold
[7]
  cell viability: without affecting cell viability
[8]
  EC50: 0.0236 µM
[9]; Hep3B RNA-Seq
  ATF4-mediated integrated stress response (ISR): induced a general ATF4-mediated ISR
  expression of host factors exploited by SARS-CoV-2, TMPRSS2 and ACE2: No significant difference in expression
  mRNA of HSPGs GPC2 (GPC1) and SDC1 with HS biosynthetic enzymes B3GAT3 and EXTL3: significantly downregulated
  unfolded protein-induced ER stress response: did not activate the unfolded protein-induced ER stress response
[9]; Hep3B, 200 or 500 nM, 6 h and 18 h
  differentially expressed genes: ~2700 genes
[10]; day 3 and day 5
  viral titer (TCID50 from nasal washes): significantly reduced viral titer by day 5 post infection
[10]; day 3 and day 5, listed as Halofuginone
  viral titer (TCID50 from nasal washes): potent anti-viral efficacy
[10]; 200 μg/kg intraperitoneally, day -1 to day 5
  body weight: no deleterious effect on body weight
